According to PubChem BioAssay (NCI):
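Where inhibition never reached the appropriate level, the endpoint shown equals the highest concentration tested. Otherwise, values were interpolated linearly from a five-concentration, 48-hour dose response in 96-well plates. The concentration for 50% growth inhibition is given as GI50. TGI: total growth inhibition.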

Experiments:
Assay in all cases: growth of human tumour cells (NCI), 48 h
CAKI-1 renal = system: CAKI-1 renal
HL-60(TB) leukemia = system: HL-60(TB) leukemia
HOP-62 NSCLC = system: HOP-62 NSCLC
U251 CNS = system: U251 CNS
K-562 leukemia = system: K-562 leukemia
M14 melanoma = system: M14 melanoma
SF-295 CNS = system: SF-295 CNS
SK-OV-3 ovarian = system: SK-OV-3 ovarian
KM12 colon = system: KM12 colon
PC-3 prostate = system: PC-3 prostate
NCI-H460 lung = system: NCI-H460 lung
NCI-H226 lung = system: NCI-H226 lung
HS 578T breast = system: HS 578T breast
MOLT-4 leukemia = system: MOLT-4 leukemia

Compound	TGI (CAKI-1 renal) [µM]	TGI (HL-60(TB) leukemia) [µM]	TGI (HOP-62 NSCLC) [µM]	TGI (U251 CNS) [µM]	TGI (K-562 leukemia) [µM]	TGI (M14 melanoma) [µM]	TGI (SF-295 CNS) [µM]	TGI (SK-OV-3 ovarian) [µM]	TGI (KM12 colon) [µM]	TGI (PC-3 prostate) [µM]	TGI (NCI-H460 lung) [µM]	GI50 (NCI-H226 lung) [µM]	TGI (NCI-H226 lung) [µM]	TGI (HS 578T breast) [µM]	TGI (MOLT-4 leukemia) [µM]
Cc1ccc(-c2cc(C(F)(F)F)nn2-c2ccc(S(N)(=O)=O)cc2)cc1	> 60.1	42.7	> 100	> 54.5	> 50.6	> 60	55.4	> 57	35.9	34.1	37.4	28.2	> 100	58.7	53.2
O=c1ccn(C2OC(CO)C(O)C2[Se]c2ccccc2)c(=O)[nH]1 (configuration not stated)	> 100	> 100	> 100	> 100	> 100	> 100	> 100	> 100	> 100	> 100	> 100	–	> 100	> 100	> 100
CC(=O)CSc1c(-c2ccccc2)c(=O)n(-c2ccccc2)c(=S)n1-c1ccccc1	> 100	> 100	> 100	> 100	> 100	> 100	> 100	> 100	> 100	> 100	> 100	–	> 100	> 100	> 100
COC(CC1(/C=C/O[Si](C(C)C)(C(C)C)C(C)C)C(=O)N(C)c2ccccc21)OC (configuration not stated)	> 100	> 100	> 100	> 100	> 100	> 100	> 100	> 100	> 100	> 100	> 100	–	90	45.2	> 100
CCC[C@H](NS(=O)c1ccc(C)cc1)C(C(=O)OCC)=C(c1ccccc1)c1ccccc1 (some centres not stated)	35.6	> 100	36.4	33.5	> 100	51.2	40	> 100	37.8	50.7	36.5	–	51.6	71.2	> 100
Cc1nc2c(=O)n(-c3ccccc3)c3ccccc3c2o1	> 100	> 100	> 100	> 100	> 100	> 100	> 100	> 100	> 100	> 100	> 100	–	> 100	> 100	> 100
CC(C)(C)Nc1noc(=O)n1C(C)(C)C	> 100	> 100	> 100	> 100	> 100	> 100	> 100	> 100	> 100	> 100	> 100	–	> 100	> 100	> 100
CC(SC(=S)N1CCOCC1)C(=O)Nc1nnc(-c2ccccc2)o1 (configuration not stated)	> 100	20.5	> 100	> 100	> 100	> 100	> 100	> 100	> 100	> 100	> 100	–	> 100	> 100	> 100
COc1ccc(C(CC(=O)C(C)(C)CN2CCCCC2)SCCS(=O)(=O)O)cc1 (configuration not stated)	> 100	67	> 100	> 100	> 100	57.2	> 100	> 100	> 100	> 100	> 100	–	> 100	> 100	57
O=c1oc2ccccc2c(O)c1/C=N/C(=S)NCCc1ccccc1	> 100	5.38	> 100	> 100	> 100	> 100	> 100	> 63.8	> 100	> 100	> 70.3	–	> 100	> 100	> 100
COC(=O)c1c(O)ccc2c1c1c(n2Cc2ccc(Cl)cc2Cl)C(=O)c2ccccc2C1=O	27.2	34.2	23.5	24.6	22.5	29	31.5	27.6	15.9	21.3	13	–	24.8	33.1	7.17
COc1ccc(/C(O)=C/c2nc3cccnc3nc2/C=C(\O)c2ccc(OC)cc2)cc1	46.5	> 100	20	37.7	> 100	69.2	46.3	31.7	> 100	> 100	32.6	–	22.5	43.7	> 100
CN(C)P(=O)(Oc1ccc(CC(NC(=O)OCc2ccccc2)C(=O)OCc2ccccc2)cc1)N(C)C (configuration not stated)	32.8	32.9	31.7	28.2	64.1	32	34.5	33.2	40.3	29.9	48.8	–	52.8	67.5	13.7
Cc1cc(S(=O)(=O)Nc2cc(N)[nH]n2)c(SCc2nc(N)nc(N(C)C)n2)cc1Cl	> 10	> 10	> 10	> 10	> 10	> 10	> 10	> 10	> 10	> 10	> 10	–	> 10	> 10	> 10
CC(=O)O[C@H]1/C(=C/c2ccncc2)C[C@H]2[C@@H]3CC=C4C[C@@H](N5CCCC5)CC[C@]4(C)[C@H]3CC[C@]12C	27.9	26.1	30.4	24.8	12.5	23.8	29.4	37	26.2	26.6	24.8	–	38	33.7	30.3
COC(=O)[C@@H]1CN(C(C)=O)C(=O)N1C(=O)OCc1ccccc1	> 100	> 100	> 100	> 100	> 100	> 100	> 100	> 100	> 100	> 100	> 100	–	> 100	> 100	> 100
NCCN1C(=O)CN=C(c2ccc(Cl)cc2)c2cc(Cl)ccc21	32	37.7	31.8	31.5	34.8	30.3	> 100	47.6	31.3	30.1	34.4	–	31	35.8	73.8
CC(=O)Nc1ccc(-c2nc3ccccc3s2)cc1I	> 100	> 100	39	> 81.6	> 100	> 87.7	> 100	38.2	> 100	> 100	> 100	–	59.4	> 100	> 100
C=C(C)[C@H]1C=C[C@@H](OC(=O)c2cccnc2)[C@@]23CO[C@@](C)([C@H](OC(=O)c4cccnc4)[C@@]4(OC(C)=O)C[C@H](C)[C@H](OCCC)[C@@H]4[C@H]2OC(C)=O)[C@H]13	> 15	14.1	> 15	> 15	> 15	> 15	> 15	> 15	> 15	> 15	> 15	–	> 15	> 15	> 15
